Laboratory results as given in patent publication US20250304576A1 (Cancer Research Technology Limited, priority 2022, published 2025).

Experiments:
[1] = biological target: T1, Recombinant IKKα (Homo sapiens, UniProt O15111); assay: DELFIA IKKα kinase assay (apparent Ki, Cheng-Prusoff); format: biochemical
T1 construct: purchased Millipore, Dundee, UK
T1 sequence (O15111 1-745): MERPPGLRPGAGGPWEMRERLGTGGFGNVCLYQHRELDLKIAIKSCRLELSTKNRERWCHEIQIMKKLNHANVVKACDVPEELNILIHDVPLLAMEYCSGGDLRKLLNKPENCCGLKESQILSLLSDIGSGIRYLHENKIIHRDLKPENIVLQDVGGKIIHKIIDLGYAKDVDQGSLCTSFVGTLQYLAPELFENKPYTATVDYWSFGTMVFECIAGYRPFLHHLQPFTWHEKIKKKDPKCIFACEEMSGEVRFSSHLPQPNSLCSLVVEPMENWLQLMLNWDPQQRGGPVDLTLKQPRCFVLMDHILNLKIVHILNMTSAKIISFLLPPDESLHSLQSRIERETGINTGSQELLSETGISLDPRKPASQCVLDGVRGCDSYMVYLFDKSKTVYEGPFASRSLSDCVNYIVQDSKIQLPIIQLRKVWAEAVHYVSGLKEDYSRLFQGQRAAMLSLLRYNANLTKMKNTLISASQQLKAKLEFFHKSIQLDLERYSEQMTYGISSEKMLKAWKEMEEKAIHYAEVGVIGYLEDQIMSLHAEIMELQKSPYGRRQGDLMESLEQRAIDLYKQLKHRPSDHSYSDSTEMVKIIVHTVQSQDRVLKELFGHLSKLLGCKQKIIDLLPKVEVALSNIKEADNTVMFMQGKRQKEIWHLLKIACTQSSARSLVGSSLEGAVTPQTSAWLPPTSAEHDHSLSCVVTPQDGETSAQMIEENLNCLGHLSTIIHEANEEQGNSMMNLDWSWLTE
In short: (§1)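 Recombinant IKKα or IKKβ (37 nM) with 0.375 μM biotinylated IκB-α (Ser32) peptide and 40 μM ATP in 40 mM Tris-HCl pH 7.5, 20 mM MgCl2, 60 min at 30° C. Phospho-substrate captured on streptavidin and detected by anti-phospho-IκB-α plus europium anti-mouse IgG time-resolved fluorescence; apparent Ki via Cheng-Prusoff.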

[2] = biological target: T2, Recombinant IKKβ (Homo sapiens, UniProt O14920); assay: DELFIA IKKβ kinase assay (apparent Ki, Cheng-Prusoff); format: biochemical
T2 construct: purchased Millipore, Dundee, UK
T2 sequence (O14920 1-756): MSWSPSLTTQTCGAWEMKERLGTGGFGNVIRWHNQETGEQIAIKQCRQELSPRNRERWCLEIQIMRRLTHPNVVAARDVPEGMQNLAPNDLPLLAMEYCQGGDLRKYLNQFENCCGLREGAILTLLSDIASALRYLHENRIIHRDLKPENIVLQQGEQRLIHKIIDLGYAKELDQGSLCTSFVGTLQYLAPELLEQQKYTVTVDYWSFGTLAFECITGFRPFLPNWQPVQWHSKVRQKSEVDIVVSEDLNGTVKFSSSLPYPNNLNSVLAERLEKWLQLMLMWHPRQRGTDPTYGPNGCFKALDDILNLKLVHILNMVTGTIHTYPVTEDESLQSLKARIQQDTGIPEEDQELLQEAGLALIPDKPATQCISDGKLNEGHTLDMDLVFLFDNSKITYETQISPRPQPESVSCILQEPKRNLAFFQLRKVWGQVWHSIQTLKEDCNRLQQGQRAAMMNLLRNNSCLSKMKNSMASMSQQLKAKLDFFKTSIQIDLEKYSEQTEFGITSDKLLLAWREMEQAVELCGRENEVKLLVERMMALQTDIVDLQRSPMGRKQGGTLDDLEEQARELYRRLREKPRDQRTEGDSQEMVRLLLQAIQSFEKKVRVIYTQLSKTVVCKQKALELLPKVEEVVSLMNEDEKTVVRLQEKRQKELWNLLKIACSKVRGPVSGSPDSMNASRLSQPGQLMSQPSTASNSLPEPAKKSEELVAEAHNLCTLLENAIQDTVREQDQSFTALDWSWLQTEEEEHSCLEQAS
In short: as §1

[3] = DELFIA assay (first line of an example)
[4] = non-italicised figure: DELFIA assay

Ki [1, 3] [nM] | Ki [2, 3] [nM] | Ki [1, 4] [nM] | Ki [2, 4] [nM] | SMILES
66 | 502 | – | – | CC(C)(C)C#Cc1cc(-c2ccnc(Nc3c[nH]cn3)c2)cc2c(N)n[nH]c12 [Example 318, 5-(2-((1H-Imidazol-4-yl)amino)pyridin-4-yl)-7-(3,3-dimethylbut-1-yn-1-yl)-1H-indazol-3-amine]
– | – | 100 | 4200 | CC(C)CCNC(=O)Nc1cc(-c2ccc3[nH]nc(N)c3c2)ccn1 [Example 38, 1-(4-(3-Amino-1H-indazol-5-yl)pyridin-2-yl)-3-isopentylurea]
– | – | 38 | 838 | Nc1n[nH]c2ccc(-c3ccnc(NC(=O)NCc4ccccn4)c3)cc12 [Example 47, 1-(4-(3-Amino-1H-indazol-5-yl)pyridin-2-yl)-3-(pyridin-2-ylmethyl)urea]
– | – | 55 | 880 | Nc1cc(-c2cc(Cl)c3[nH]nc(N)c3c2)ccn1 [Example 1, 5-(2-Aminopyridin-4-yl)-7-chloro-1H-indazol-3-amine]
62 | 148 | – | – | Cn1ccc(Nc2cc(-c3cc(C#CC(C)(C)C)c4[nH]nc(N)c4c3)ccn2)n1 [Example 302, 7-(3,3-dimethylbut-1-yn-1-yl)-5-(2-((1-methyl-1H-pyrazol-3-yl)amino)pyridin-4-yl)-1H-indazol-3-amine]
– | – | 17 | 128 | COC(=O)c1cccc(C#Cc2c(-c3ccc4[nH]nc(N)c4c3)ccnc2N)c1 [Example 79, Methyl 3-((2-amino-4-(3-amino-1H-indazol-5-yl)149yridine-3-yl)ethynyl)benzoate]
318 | 4040 | – | – | Cc1noc(C)c1Nc1cc(-c2cc(C#CC(C)(C)C)c3[nH]nc(N)c3c2)ccn1 [Example 317, N-(4-(3-amino-7-(3,3-dimethylbut-1-yn-1-yl)-1H-indazol-5-yl)pyridin-2-yl)-3,5-dimethylisoxazol-4-amine]
– | – | 304 | 1840 | Nc1n[nH]c2ccc(-c3ccnc(NC(=O)NCc4ccncc4)c3)cc12 [Example 49, 1-(4-(3-Amino-1H-indazol-5-yl)pyridin-2-yl)-3-(pyridin-4-ylmethyl)urea]
– | – | 10 | 680 | Nc1cc(-c2cc(-c3cccc(O)c3)c3[nH]nc(N)c3c2)ccn1 [Example 108, 3-(3-Amino-5-(2-aminopyridin-4-yl)-1H-indazol-7-yl)phenol]
373 | 4900 | – | – | CC(C)(C)C#Cc1cc(-c2ccnc(NS(C)(=O)=O)c2)cc2c(N)n[nH]c12 [Example 194, N-(4-(3-amino-7-(3,3-dimethylbut-1-yn-1-yl)-1H-indazol-5-yl)pyridin-2-yl)methanesulfonamide]
– | – | 300 | 4200 | CCc1ccccc1NC(=O)Nc1cc(-c2ccc3[nH]nc(N)c3c2)ccn1 [Example 67, 1-(4-(3-Amino-1H-indazol-5-yl)pyridin-2-yl)-3-(2-ethylphenyl)urea]
– | – | 15 | 796 | Nc1n[nH]c2ccc(-c3ccnc(NCCCO)c3)cc12 [Example 21, 3-((4-(3-Amino-1H-indazol-5-yl)pyridine-2-yl)amino)propan-1-ol]
10 | > 370 | – | – | COC(=O)c1cc2c(-c3cc(C#CC(C)(C)C)c4[nH]nc(N)c4c3)ccnc2[nH]1 [Example 299, Methyl 4-(3-amino-7-(3,3-dimethylbut-1-yn-1-yl)-1H-indazol-5-yl)-1H-pyrrolo[2,3-b]pyridine-2-carboxylate]
– | – | 76 | 2510 | CC(C)OCCCNc1cc(-c2ccc3[nH]nc(N)c3c2)ccn1 [Example 27, 5-(2-((3-Isopropoxypropyl)amino)pyridin-4-yl)-1H-indazol-3-amine]
45 | 210 | – | – | Cc1cc(Nc2cc(-c3cc(C#CC(C)(C)C)c4[nH]nc(N)c4c3)ccn2)n[nH]1 [Example 312, 7-(3,3-Dimethylbut-1-yn-1-yl)-5-(2-((5-methyl-1H-pyrazol-3-yl)amino)pyridin-4-yl)-1H-indazol-3-amine]
– | – | 571 | > 10000 | Nc1n[nH]c2ccc(-c3ccnc(NC4CCCCC4)c3)cc12 [Example 18, 5-(2-(Cyclohexylamino)pyridine-4-yl)-1H-indazol-3-amine]
– | – | 10 | 962 | COC(=O)Nc1cc(-c2cc(C#CC3CC3)c3[nH]nc(N)c3c2)ccn1 [Example 179, Methyl (4-(3-amino-7-(cyclopropylethynyl)-1H-indazol-5yl)-pyridin-2-yl)carbamate]
16 | 540 | – | – | CC(C)(C)C#Cc1cc(-c2ccnc3[nH]c(C(C)(C)O)cc23)cc2c(N)n[nH]c12 [Example 298, 2-(4-(3-Amino-7-(3,3-dimethylbut-1-yn-1-yl)-1H-indazol-5-yl)-1H-pyrrolo[2,3-b]pyridin-2-yl)propan-2-ol]
5 | 18.5 | – | – | Cn1nnc(Nc2cc(-c3cc(C#CC(C)(C)C)c4[nH]nc(N)c4c3)ccn2)n1 [Example 320, 7-(3,3-Dimethylbut-1-yn-1-yl)-5-(2-((2-methyl-2H-tetrazol-5-yl)amino)pyridin-4-yl)-1H-indazol-3-amine]
– | – | 162 | 1010 | Nc1cc(-c2cc(-c3cccc(CN4CCOCC4)c3)c3[nH]nc(N)c3c2)ccn1 [Example 116]
– | – | 36 | 400 | Nc1n[nH]c2ccc(-c3ccnc(NC(=O)Nc4cccc(Cl)c4)c3)cc12 [Example 52, 1-(4-(3-Amino-1H-indazol-5-yl)pyridin-2-yl)-3-(3-chlorophenyl)urea]
380 | > 10000 | – | – | CC(C)(C)C#Cc1cc(-c2ccnc3[nH]c(CC4CCCCC4)cc23)cc2c(N)n[nH]c12 [Example 278, 5-(2-(Cyclohexylmethyl)-1H-pyrrolo[2,3-b]pyridin-4-yl)-7-(3,3-dimethylbut-1-yn-1-yl)-1H-indazol-3-amine]
– | – | 183 | 796 | Nc1cc(-c2cc(-c3ccccc3CO)c3[nH]nc(N)c3c2)ccn1 [Example 125]
– | – | 160 | 1500 | CC(C)(C)c1ccc(-c2cc(-c3ccnc(N)c3)cc3c(N)n[nH]c23)cc1 [Example 123, 5-(2-Aminopyridin-4-yl)-7-(4-(tert-butyl)phenyl)-1H-indazol-3-amine]
– | – | 4 | 22 | Nc1cccc(C#Cc2c(-c3ccc4[nH]nc(N)c4c3)ccnc2N)c1 [Example 77, 5-(2-Amino-3-((3-aminophenyl)ethynyl)pyridine-4-yl)-1H-indazol-3-amine]
9 | 104 | – | – | CC(C)N(CCNC(=O)c1cc2c(-c3ccc4[nH]nc(N)c4c3)ccnc2[nH]1)C(C)C [Example 246, 4-(3-Amino-1H-indazol-5-yl)-N-(2-(diisopropylamino)ethyl)-1H-pyrrolo[2,3-b]pyridine-2-carboxamide]
– | – | 171 | 419 | Nc1n[nH]c2ccc(-c3ccnc(NC(=O)Nc4cccc(C(=O)Nc5ccccc5)c4)c3)cc12 [Example 61, 3-(3-(4-(3-Amino-1H-indazol-5-yl)pyridine-2-yl)ureido)-N-phenylbenzamide]
– | – | 29 | 290 | Nc1cc(-c2cc(-c3cccc(CO)c3)c3[nH]nc(N)c3c2)ccn1 [Example 110]
56 | 1470 | – | – | CC(C)CCNCc1cc2c(-c3ccc4[nH]nc(N)c4c3)ccnc2[nH]1 [Example 249, 5-(2-((Isopentylamino)methyl)-1H-pyrrolo[2,3-b]pyridine-4-yl)-1H-indazol-3-amine]
– | – | 43 | 612 | Nc1cc(-c2cc(-c3ccsc3)c3[nH]nc(N)c3c2)ccn1 [Example 130, 5-(2-Aminopyridin-4-yl)-7-(thiophen-3-yl)-1H-indazol-3-amine]
